# Results as given in patent US20170281779A1, “METHOD OF TREATING PATIENTS NON-RESPONSIVE TO PALONOSETRON” (Heron Therapeutics, Inc., priority 2013, published 2017).
# Assays:
# [1] = cited from earlier work
# 5-HT3 receptors = molecular target: T1, 5-HT3 receptors (Homo sapiens, UniProt P46098); details: compared to first generation 5-HT3 receptor antagonists dolasetron, granisetron and ondansetron; cited from earlier work
# T1 sequence (P46098 24-478): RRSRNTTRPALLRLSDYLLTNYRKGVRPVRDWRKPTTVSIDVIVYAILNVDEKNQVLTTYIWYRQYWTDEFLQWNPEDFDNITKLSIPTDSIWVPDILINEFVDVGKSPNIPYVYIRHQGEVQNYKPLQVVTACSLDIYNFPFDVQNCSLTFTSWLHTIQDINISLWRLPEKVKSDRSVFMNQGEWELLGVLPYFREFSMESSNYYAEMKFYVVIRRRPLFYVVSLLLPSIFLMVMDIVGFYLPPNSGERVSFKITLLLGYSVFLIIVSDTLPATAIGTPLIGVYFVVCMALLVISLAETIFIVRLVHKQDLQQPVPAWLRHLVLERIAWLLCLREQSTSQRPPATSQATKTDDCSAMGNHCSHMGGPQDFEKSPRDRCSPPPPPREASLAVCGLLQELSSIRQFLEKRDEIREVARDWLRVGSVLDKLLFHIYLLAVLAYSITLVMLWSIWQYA
# [2] = test system: chemotherapy-induced nausea and vomiting (CINV); assay: Clinical study of complete response (absence of emetic episodes) in chemotherapy patients; Cycle 1 palonosetron, Cycle 2 granisetron semi-solid delivery vehicle; assay type: in vivo, human; details: Cycle 1, palonosetron 0.25 mg intravenous
# Experimental: As described in Example 2, the patients in the study were undergoing either a moderately emetogenic chemotherapy regimen or a highly emetogenic chemotherapy regimen. In a first cycle of the study, the patients were treated with (i) 5 mg of granisetron in a semi-solid drug delivery vehicle, administered subcutaneously; (ii) 10 mg of granisetron in a semi-solid drug delivery vehicle, administered subcutaneously; or (iii) palonosetron, 0.25 mg administered intravenously. Patients who received palonosetron in Cycle 1 and remained on study were re-randomized for treatment with 5 mg or 10 mg of granisetron, administered as comprised within a semi-solid drug delivery vehicle via subcutaneous injection of 250 mg vehicle or 500 mg vehicle.
# In Cycle 1 of the study, 1395 patients receiving single doses of a moderately emetogenic chemotherapy (MEC) regimen or a highly emetogenic chemotherapy (HEC) regimen were randomized for treatment with one of three regimens: a semi-solid drug delivery vehicle comprising granisetron, administered subcutaneously to provide (i) 5 mg granisetron or (ii) 10 mg granisetron (via subcutaneous injection of 250 mg or 500 mg vehicle, respectively) or (iii) palonosetron, 0.25 mg intravenous. The palonosetron dose administered was the recommended dose of palonosetron (ALOXI®) for treatment of chemotherapy-induced nausea and vomiting in adults. Palonosetron, when administered intravenously at the above-dose, is indicated in adults for the prevention of both acute and delayed vomiting associated with initial and repeated courses of moderately emetogenic chemotherapy, and acute nausea and vomiting associated with initial and repeat courses of highly emetogenic chemotherapy.
# Patients who received palonosetron in Cycle 1 and remained in the study were re-randomized for treatment in Cycle 2 with 5 mg or 10 mg granisetron administered subcutaneously as 250 mg or 500 mg, respectively, of the semi-solid drug delivery vehicle. […]
# [3] = compared to first generation 5-HT3 receptor antagonists dolasetron, granisetron and ondansetron
compound,measurement,setting,value
O=C1c2cccc3c2[C@H](CCC3)CN1[C@@H]1CN2CCC1CC2 [palonosetron],safety profile,[1]; as reported in the literature (Eisenberg et al. 2004),excellent safety profile
same,half-life,[1]; [3],significantly longer half-life
same,potency,[1]; [3],higher potency
same,binding affinity to the 5-HT3 receptors,5-HT3 receptors,higher binding affinity
same,overall (0-120 hour) failures,[2]; HEC patients (94/238),39.5%
same,overall (0-120 hour) failures,[2]; MEC patients (100/208),48.1%
same,overall (0-120 hour) failures,[2]; all 446 patients (MEC + HEC),43.5%
